Measured values: publication PMC2866084 (Journal of medicinal chemistry, 2010)

How the values were obtained:
[1] = in vivo; settings: male, CD-1, mouse, po, 50 mg/kg
[2] = Double-sink PAMPA permeability; type: in vitro ADME; settings: pH 7.4
[3] = test system: Salmonella typhimurium tester strains TA98 and TA100; test: Ames assay for mutagenicity and cytotoxicity screening; type: cell-based; settings: TA98 and TA100, with and without S-9
[4] = test system: CD-1 mice; test: Dose range-finding toxicity study in male and female CD-1 mice; settings: for histopathology: after 7 days oral treatment; for body weights compared to vehicle-treated controls: all treated mice, 7 days oral

SMILES | concentration at 24 h [1] | Papp at 30 min, 50 μM [2] | Bacterial mutagenicity, AMES test [3] | histopathology [4] | body weights compared to vehicle-treated controls [4]
CCN(CC)CCCC(C)Nc1ccnc2cc(Oc3ccccc3)ccc12 (centres unmarked) [Compound 1] | < 11.8 nM | – | – | – | –
CCN(CC)CCCC(C)Nc1ccnc2cc(C(F)(F)F)ccc12 (centres unmarked) [Compound 3] | – | 2700 ± 107 ×10⁻⁶ cm/s | – | – | –
CCCN(CCCNc1ccnc2cc(Cl)ccc12)CC1CC1 [Compound 4] | – | 1110 ± 176 ×10⁻⁶ cm/s | no increase in mutagenicity | – | –
Clc1ccc2c(NCCCNCc3cccc4c3OCO4)ccnc2c1 [Compound 18, N-Benzo[1,3]dioxol-4-ylmethyl-N′-(7-chloro-quinolin-4-yl)-propane-1,3-diamine] | – | 2400 ± 652 ×10⁻⁶ cm/s | no increase in mutagenicity | no findings related to the administration of the test articles | remained normal
COc1cccc(CNCCCNc2ccnc3cc(Cl)ccc23)c1O [Compound 20, 2-{[3-(7-Chloro-quinolin-4-ylamino)-propylamino]-methyl}-6-methoxy-phenol] | – | 1360 ± 214 ×10⁻⁶ cm/s | – | no findings related to the administration of the test articles | remained normal
